# Key:
# [1] = Adduct formation of SANA with β-mercaptoethanol, followed spectrophotometrically (UV-visible); type: physicochemical; conditions: pH 7.4, BME 1 mM, scans every min up to 15 min
# Experimental: (§1) UV-visible spectra was acquired by a Varian Cary 50 Bio. Scans were taken every min up to 15 min.
# [2] = Adduct formation of SANA with glutathione, followed spectrophotometrically (UV-visible); type: physicochemical; conditions: pH 7.4, GSH 1 mM, scans every min up to 15 min
# Experimental: as §1
# [3] = Stopped-flow kinetic measurement of the reaction with BME; type: physicochemical; conditions: 25 μM, BME 0.54-2.73 mM, absorbance at 260 nm, 25° C., triplicate, slope of pseudo first order constants vs BME
# Experimental: In FIG. 2, it is shown that the reaction between SANA and BME was determined to be a second order rate constant. Stopped-flow kinetic measurements were performed using an Rx 2000 stopped flow analyzer (Applied Photophysics). Mixtures of 1.50 μL […] (25 μM) and solutions of BME at 0.54 mM, 1.09 mM, 1.64 mM, 2.18 mM, and 2.73 mM concentrations.
# The reaction was monitored by following the absorbance at 260 nm and plots were fitted to a simple exponential decay function using Originlab software (version 8.0.). The observed pseudo first order constant at each concentration of BME was extracted from the equation and plotted against the concentration of BME. The second rate constant of the reaction is derived from the slope of the curve and was 182±6 M^−1s^−1. All experiments were carried out at 25° C. by triplicate.
# [4] = test system: NF-κB/p65 in THP-1 macrophages; assay: LPS-induced NF-κB/p65 subcellular localization, immunofluorescence and epifluorescence microscopy; type: cell-based, human
# Source text: Nuclear factor kappa B (NF-κB) represents a family of pro-inflammatory transcription factors, present in all eukaryotic cells, which regulate inducible expression of wide ranging genes involved in immune responses and cell-cycle regulation. Activation of NF-κB is accompanied by nuclear translocation of NF-κB. […] Specifically, FIG. 3 illustrates immunofluorescence and epifluorescence microscopy analysis showing the effect of SANA on LPS-induced NF-κB/p65 subcellular localization in THP-1 macrophages.
# [5] = test system: NF-kB-dependent gene expression in THP-1 cells differentiated into macrophages; assay: NF-kB-dependent gene expression in human macrophages (qPCR); type: cell-based; conditions: 100 and 200 uM for 2 hours, then LPS (3 hours)
# Experimental: THP-1 cells were differentiated into macrophages. Cells were then treated with SANA (100 and 200 uM) or Salicylic acid (SA: 100 and 200 uM) for 2 hours. Cells were then stimulated with LPS (1 mg/mL, 3 hours) mRNA was extracted and IL-6, TNF-a and MCP-1 fold change gene expression over control were quantified by qPCR.
# [6] = test system: Nrf2/Keap1-dependent gene expression in Hep G2 cells; assay: Phase two enzymes Nrf2/Keap1-dependent gene expression (qPCR); type: cell-based; conditions: Hep G2, five hours, SANA 0.1 mM, Salicylic Acid 0.2. and 5 mM
# Experimental: FIGS. 6 and 7 show induction of phase two enzymes Nrf2/Keap1-dependent gene expression by SANA but not by SA. Hep G2 cells were treated with SANA (0.1 mM) or Salicylic Acid (0.2. and 5 mM) for five hours. mRNA was extracted from the cells and was measured HO-1, GCLM and NQO1 gene expression by qPCR.
# [7] = test system: inflammasome in THP-1 cells differentiated into macrophages; assay: Inflammasome inhibition in THP-1 macrophages (LPS + ATP, IL-1b ELISA); type: cell-based, human; conditions: for inhibition of the inflammasome (IL-1b secretion), applied with the second signal: LPS (250 ng/mL, 3 hs.), then together with ATP (5 mM, 45 minutes), SANA 0.05, 0.125 and 0.25 mM, Salicylic acid 0.25 mM; for inhibition of the inflammasome (IL-1b secretion), applied with the first signal: together with LPS (250 ng/mL, 3 hs.), then ATP (5 mM, 45 minutes), SANA 0.05, 0.125 and 0.25, Salicylic acid 0.2.5 mM
# Experimental: In FIGS. 8 and 9 show the inhibition of inflammasome in THP-1 cells differentiated into macrophages (PMA 200 nM, 48 hs.) by SAMA but not by SA when applied together with the first (FIG. 8) or the second (FIG. 9) signal. In FIG. 8 cells were treated with Salicylic acid (0.2.5 mM) or SANA (0.05; 0.125 and 0.25) together with LPS stimulation. The cells were stimulated with LPS (250 ng/mL, 3 hs.) and then with ATP (5 mM, 45 minutes). Supernatant was collected and IL-1b measured by ELISA. Cell viability was assessed by MTT assay. […] In FIG. 9 THP-1 cells were differentiated into macrophages with PMA (200 nM, 48 hs.). Cells were stimulated with LPS (250 ng/mL, 3 hs.) and then with ATP (5 mM, 45 minutes), Together with ATP treatment, cells were then treated with […] (10 uM), Salicylic acid (0.25 mM) or SANA (0.05; 0.125 and 0.25 mM). Supernatant was collected and IL-1b secretion was measured by ELISA. Cell viability was assessed by the MTT assay.
# [8] = test system: Il-1b secretion into the peritoneum; assay: LPS-induced Il-1b secretion into the peritoneum in vivo
# HFD-induced obese mice = assay: Insulin resistance in HFD-induced obese mice (glucose tolerance test); type: in vivo; conditions: 100 mg/kg gavage every day during four weeks
# Experimental: Mice under RFD for up to 7 months (mean weight around 40 gr.) were treated with SANA (100 mg/kg; gavage) or phosphate buffer (control) every day during four weeks. The glucose tolerance test were run as per well-known standard procedures.
# GAPDH = GAPDH (Homo sapiens, UniProt P04406); assay: GAPDH activity; type: biochemical
# [9] = test system: skin allograft, C57BL/6 female mice grafted with skin of C57BL/6 male mice; assay: Skin allograft rejection in mice; type: in vivo; conditions: from one day before until 15 days after transplantation
# Experimental: C57BL/6 female mice were grafted with skin from the tails of C57BL/6 male mice. The skin graft is a small square (1 cm^2) and it was implanted onto the left subscapular region of the female mice. From one day before the transplantation until 15 days after it, the mice were treated daily with SANA. (1.00 mg/kg, by oral gavage; SANA group) or vehicle (Control group). The vehicle used was a solution of Carboxy-Methyl-cellulose 0.5% m/v and Tween 80 0.5% v/v. At the end of the 15th day of administration, allografts were checked every 48/72 hours to assess the condition of the grafted skin. Rejection was diagnosed clinically when the allograft lost more than 50% of its size and/or more than 10% of allograft was necrotic. […] The study followed the protocol described above for FIG. 1, but further included a Salicylate group. C57BL/6 female mice were grafted with skin from the tails of C57BL/6 male mice. The skin graft is a small square (1 cm^2) and it was implanted onto the left subscapular region of the female mice. From one day before the transplantation until 15 days after it, the mice were treated daily with Salicylate (100 mg/kg, by oral gavage; Salicylate group), SANA (100 mg/kg, by oral gavage; SANA group) or vehicle (Control group). The vehicle used was a solution of Carboxy-Methyl-cellulose 0.5% m/v and Tween 80 0.5% v/v. […]
# Chain of GAPDH (P04406 whole entry, species assumed): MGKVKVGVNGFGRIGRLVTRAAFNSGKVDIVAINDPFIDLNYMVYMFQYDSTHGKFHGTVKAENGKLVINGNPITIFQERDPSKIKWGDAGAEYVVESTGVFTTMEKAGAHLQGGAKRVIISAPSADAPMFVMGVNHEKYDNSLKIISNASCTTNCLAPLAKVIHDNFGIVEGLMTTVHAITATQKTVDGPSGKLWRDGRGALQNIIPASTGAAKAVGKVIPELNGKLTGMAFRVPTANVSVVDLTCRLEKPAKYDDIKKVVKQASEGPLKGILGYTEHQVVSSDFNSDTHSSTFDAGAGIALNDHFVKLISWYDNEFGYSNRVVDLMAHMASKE
adduct formation with BME (increase of absorption at 360 nm) [1],adduct formation with GSH (increase of absorption at 360 nm) [2],inhibition of GAPDH activity (GAPDH),SMILES,second rate constant of the reaction with BME [3] [M⁻¹ s⁻¹],"LPS-induced NF-κB/p65 nuclear translocation ([4]; 0.1 mM, 2 hs before activation with LPS (1 ug/mL))",potency relative to salicylic acid on NF-κB/p65 localization ([4]; SANA 0.1 mM vs salicylic acid 1 mM),"inhibition of NF-kB-dependent gene expression (IL-6, TNF-a and MCP-1 mRNA fold change over control) [5]","induction of Nrf2/Keap1-dependent gene expression (HO-1, GCLM and NQO1) [6]","inhibition of the inflammasome (IL-1b secretion), applied with the second signal [7]","inhibition of the inflammasome (IL-1b secretion), applied with the first signal [7]",LPS-induced Il-1b secretion into the peritoneum [8],insulin resistance (glucose tolerance test) (HFD-induced obese mice),survival of grafted skin vs control group ([9]; 1.00 mg/kg by oral gavage daily),"skin allograft rejection vs salicylic acid ([9]; 100 mg/kg by oral gavage daily, Salicylate 100 mg/kg)","LPS-induced NF-κB/p65 subcellular localization, effect compared with SANA 0.1 mM ([4]; 1 mM, LPS (1 ug/mL))"
adduct formation,adduct formation,does not inhibit GAPDH activity,"O=C(O)c1cc(/C=C/[N+](=O)[O-])ccc1O [SANA, 2-hydroxy-5-(2-nitroethenyl)benzoic acid]",182 ± 6,lack of nuclear translocation of NF-κB,significantly more potent than salicylic acid,inhibition of NF-kB-dependent gene expression,induction,potent inhibitor of the inflammasome,potent inhibitor of the inflammasome,decreases,reverses insulin resistance,prolonged survival of grafted skin as compared to a control group,significant reduction in skin allograft rejection compared to salicylic acid,–
–,–,–,"O=C(O)c1ccccc1O [salicylic acid, reference compound]",–,–,–,not able to inhibit NF-kB dependent gene expression,not by SA,cannot inhibit,cannot inhibit,–,–,–,–,the same effect

# — patent US12280029B2, “Methods of treatment of inflammation related conditions using pluripotent anti-inflammatory and metabolic modulators” (INSTITUT PASTEUR DE MONTEVIDEO, priority 2016, dated 2025)
